According to patent US20240316047A1, “INHIBITORS OF RNA HELICASE DHX9 AND USES THEREOF” (ACCENT THERAPEUTICS, INC., priority 2022, published 2024):

Target: Human recombinant DHX9 protein (Homo sapiens (Human), UniProt Q08211)
Test: DHX9 ATPase assay (ADP-Glo)
Format: biochemical
Conditions: for IC50: read-out: DHX9 Biochemical Inflection Point

Sequence of Human recombinant DHX9 protein (Q08211 whole entry): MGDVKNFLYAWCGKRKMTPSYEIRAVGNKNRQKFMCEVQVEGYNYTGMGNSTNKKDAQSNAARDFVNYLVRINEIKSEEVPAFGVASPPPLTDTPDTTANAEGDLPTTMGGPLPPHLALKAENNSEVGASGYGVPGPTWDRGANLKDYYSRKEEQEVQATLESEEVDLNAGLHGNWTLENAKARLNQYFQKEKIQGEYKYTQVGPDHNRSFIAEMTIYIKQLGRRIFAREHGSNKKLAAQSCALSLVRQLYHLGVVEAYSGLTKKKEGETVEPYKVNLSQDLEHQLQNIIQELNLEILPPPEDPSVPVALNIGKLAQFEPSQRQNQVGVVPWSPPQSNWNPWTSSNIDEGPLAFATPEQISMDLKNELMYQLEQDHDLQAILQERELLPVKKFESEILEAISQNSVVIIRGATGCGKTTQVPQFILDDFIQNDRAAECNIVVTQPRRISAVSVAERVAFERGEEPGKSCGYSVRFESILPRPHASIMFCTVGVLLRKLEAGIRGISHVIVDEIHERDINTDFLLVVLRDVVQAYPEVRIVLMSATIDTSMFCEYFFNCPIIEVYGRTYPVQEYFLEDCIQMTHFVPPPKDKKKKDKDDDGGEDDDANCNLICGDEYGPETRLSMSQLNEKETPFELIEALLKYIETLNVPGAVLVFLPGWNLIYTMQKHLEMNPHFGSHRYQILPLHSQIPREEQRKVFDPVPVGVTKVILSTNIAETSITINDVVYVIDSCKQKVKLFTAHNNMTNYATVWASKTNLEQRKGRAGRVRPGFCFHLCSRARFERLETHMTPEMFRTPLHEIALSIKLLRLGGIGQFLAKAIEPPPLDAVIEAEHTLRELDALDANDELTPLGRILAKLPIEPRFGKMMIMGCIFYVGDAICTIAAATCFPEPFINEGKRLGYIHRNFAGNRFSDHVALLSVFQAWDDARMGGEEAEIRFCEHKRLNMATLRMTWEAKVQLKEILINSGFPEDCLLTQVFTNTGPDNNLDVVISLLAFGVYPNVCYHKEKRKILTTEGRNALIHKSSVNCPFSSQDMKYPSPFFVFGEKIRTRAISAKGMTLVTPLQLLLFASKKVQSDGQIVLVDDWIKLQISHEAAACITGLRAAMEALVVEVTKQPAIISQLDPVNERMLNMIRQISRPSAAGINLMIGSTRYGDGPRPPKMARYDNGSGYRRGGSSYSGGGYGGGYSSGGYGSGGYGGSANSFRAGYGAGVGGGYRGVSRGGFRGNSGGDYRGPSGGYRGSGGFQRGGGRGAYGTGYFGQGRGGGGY

SMILES | DHX9 Biochemical Max Inhibition | IC50 [nM]
CS(=O)(=O)Nc1cc(Cl)cc(NC(=O)c2cc(-c3ccccn3)c(C3CC3)s2)c1 [Example 177, N-(3-chloro-5-(methylsulfonamido)phenyl)-5-cyclopropyl-4-(pyridin-2-yl)thiophene-2-carboxamide] | 77% | 21.6
CS(=O)(=O)Nc1cc(Cl)cc(NC(=O)c2cc(-c3ccccc3O)cs2)c1 [Example 106] | 58.7% | 78
Cc1sc(C(=O)Nc2cc(Cl)cc(NS(C)(=O)=O)c2)cc1-c1ncc(N2CCC3(COC3)C2)cc1F [Example 512] | 74.3 | 10.9
CS(=O)(=O)Nc1cc(Cl)cc(NC(=O)c2cc3c(=O)[nH]ccn3c2)c1 [Example 301] | 69.5% | 37.7
Cc1cccnc1-n1cc(C(=O)Nc2cc(Cl)cc(NS(C)(=O)=O)c2)cn1 [Example 54] | 66.6% | 65.6
COc1cnc(-c2cc(C(=O)Nc3cc(Cl)cc(NS(C)(=O)=O)c3)sc2C)nc1 [Example 341] | 83.05% | 6.2
Cc1cnc(-n2cc(C(=O)Nc3cc(Cl)cc(NS(C)(=O)=O)c3)cn2)c(OCc2cnco2)c1 [Example 261] | 71% | 47.5
CS(=O)(=O)Nc1cc(Cl)cc(NC(=O)c2cc(-c3ccc(N4CC5(COC5)C4)cn3)n(CC(F)(F)F)c2)c1 [Example 278] | 74.1% | 44.2
CS(=O)(=O)Nc1cc(Cl)cc(NC(=O)c2cc(-c3ncc(F)cn3)cs2)c1 [Example 338] | 78% | 15.7
Cc1sc(C(=O)Nc2cc(Cl)cc(NS(C)(=O)=O)c2)cc1-c1cn(C2CCOCC2)nn1 [Example 692] | 81.5 | 2.7
Cc1sc(C(=O)Nc2cc(Cl)cc(NS(C)(=O)=O)c2)cc1-c1ncc(C2(O)CN(C)C2)cc1F [Example 681] | 77.5 | 2.4
CC(C)Oc1cnc(-c2csc(C(=O)Nc3cc(Cl)cc(NS(C)(=O)=O)c3)c2)nc1 [Example 457] | 58.7 | 20.2
Cc1cc(C(=O)Nc2cc(Cl)cc(NS(C)(=O)=O)c2)cn1-c1ccc(N2CC(F)(F)C2)cn1 [Example 399] | 72.1 | 11.4
Cc1sc(C(=O)Nc2cc(Cl)cc(NS(C)(=O)=O)c2)cc1-c1ccc(C2CN(CC(F)(F)F)C2)cn1 [Example 710] | 69 | 14.5
CS(=O)(=O)Nc1cc(Cl)cc(NC(=O)c2cnn(C3CC4(COC4)C3)c2)c1 [Example 128] | 57.3% | 173
CS(=O)(=O)Nc1cc(Cl)cc(NC(=O)c2cc(-c3ncccc3C(F)(F)F)cs2)c1 [Example 223] | 75.7% | 56.5
Cc1cc(C(=O)Nc2cc(F)cc(NS(C)(=O)=O)c2)c[nH]1 [Example 5] | 74.6% | 215
CS(=O)(=O)Nc1cc(Cl)cc(NC(=O)c2cc3cc(C(F)(F)F)ccc3s2)c1 [Example 326] | 64.5% | 8110
COC1CCN(c2cc(F)cnc2-c2cc(C(=O)Nc3cc(Cl)cc(NS(C)(=O)=O)c3)sc2C)C1 (stereo not drawn) [Example 505] | 54.3 | 46.4

SMILES | DHX9 Biochemical Max Inhibition | IC50 [nM]
Cc1sc(C(=O)Nc2cc(Cl)cc(NS(C)(=O)=O)c2)cc1-c1ncc(N2CCC(F)(F)C2)cc1F [Example 484] | 66.5 | 33.5
CS(=O)(=O)Nc1cc(Cl)cc(NC(=O)c2cc(-c3cccnc3)cs2)c1 [Example 116, N-(3-chloro-5-(methylsulfonamido)phenyl)-4-(pyridin-3-yl)thiophene-2-carboxamide] | 56.6% | 
COc1cc(N2CC(F)(F)C2)cnc1-c1cc(C(=O)Nc2cc(Cl)cc(NS(C)(=O)=O)c2)sc1C [Example 535] | 84.2 | 3.4
CS(=O)(=O)Nc1cc(Cl)cc(NC(=O)c2cc(-c3ncc(F)cn3)n(CC(F)(F)F)c2)c1 [Example 562] | 62.3 | 64.5
CS(=O)(=O)Nc1cc(Br)cc(NC(=O)c2cnn(-c3ccccc3OCc3ccccc3)c2)c1 [Example 51] | 61.1% | 145
Cc1sc(C(=O)Nc2cc(Cl)cc(NS(C)(=O)=O)c2)cc1N1C(=O)N(c2ccccn2)C(C)(C)C1=O [Example 685] | 64.3 | 117
CCS(=O)(=O)Nc1cc(Cl)cc(NC(=O)c2cc(C)n(-c3ncc(N4CC(F)(F)C4)cn3)c2)c1 [Example 423] | 74.2 | 21.6
CCS(=O)(=O)Nc1cc(Cl)cc(NC(=O)c2cc(-c3ncc(F)cc3OC)c(C)s2)c1 [Example 354] | 75.5% | 13.4
CCCS(=O)(=O)Nc1cc(Cl)cc(NC(=O)c2cc(-c3ncccc3C)cs2)c1 [Example 372] | 49.2% | 402
COc1cc(N2CC(F)(F)C2)cnc1-c1cc(C(=O)Nc2cc(Cl)cc(NS(C)(=O)=O)c2)cn1C [Example 462] | 82.4 | 9.1
CS(=O)(=O)Nc1cc(Cl)cc(NC(=O)c2cc(C3CC3)n(-c3ncc(F)cn3)c2)c1 [Example 451] | 73.2 | 54.3
CC(=O)NC1CC2(C1)CC(n1cc(C(=O)Nc3cc(Cl)cc(NS(C)(=O)=O)c3)cn1)C2 (stereo not drawn) [Example 310] | 70.3% | 102
Cn1cc(C(=O)Nc2cc(Cl)cc(NS(C)(=O)=O)c2)cc1-c1ncccc1OCC1CC1 [Example 584] | 63.5 | 17
CS(=O)(=O)Nc1cc(Cl)cc(NC(=O)c2cc(-c3ncc(F)cn3)n(C3CNC3)c2)c1 [Example 652] | 68.1 | 343
CS(=O)(=O)Nc1cc(Cl)cc(NC(=O)c2cc3c(C(F)(F)F)cccn3c2)c1 [Example 302] | 54.6% | 640
CC(C)Oc1cc(N2CC(F)(F)C2)cnc1-c1cc(C(=O)Nc2cc(Cl)cc(NS(C)(=O)=O)c2)cn1C [Example 513] | 56.4 | 77.7
Cn1cc(C(=O)Nc2cc(Cl)cc(NS(C)(=O)=O)c2)cc1-c1ncc(N2CCC2)cn1 [Example 521] | 71.8 | 3.5
CS(=O)(=O)Nc1cc(Cl)cc(NC(=O)c2cnn([C@H]3CC[C@H]3O)c2)c1 (single isomer, unassigned) [Example 306b] | 74.2% | 253
CS(=O)(=O)Nc1cc(Br)cc(NC(=O)c2cnn(-c3ccc(C(F)(F)F)cn3)c2)c1 [Example 43] | 49.8% | 258

SMILES | DHX9 Biochemical Max Inhibition | IC50 [nM]
Cn1cc(C(=O)Nc2cc(Cl)cc(NS(C)(=O)=O)c2)cc1-c1ccccc1 [Example 109] | 57.2% | 17.6
Cc1sc(C(=O)Nc2cc(Br)cc(NS(C)(=O)=O)c2)cc1-c1ccccc1O [Example 20] | 62.5% | 57.2
CN1CC(Oc2cnc(-c3cc(C(=O)Nc4cc(Cl)cc(NS(C)(=O)=O)c4)cn3CC(F)(F)F)nc2)C1 [Example 613] | 70.3 | 4.2
Cc1sc(C(=O)Nc2cc(Cl)cc(NS(C)(=O)=O)c2)cc1-c1ccc(N2CC(F)(F)C2)cn1 [Example 533] | 83.2 | 7.2
CCn1nc(C(=O)Nc2cc(F)cc(NS(C)(=O)=O)c2)cc1C [Example 119, 1-ethyl-N-(3-fluoro-5-(methylsulfonamido)phenyl)-5-methyl-1H-pyrazole-3-carboxamide] | 82.1% | 1160
CS(=O)(=O)Nc1cc(I)cc(NC(=O)c2cc(-c3ccccc3)cs2)c1 [Example 16] | 46.3% | 251
COCc1ccc(-c2cc(C(=O)Nc3cc(Cl)cc(NS(C)(=O)=O)c3)cn2C)nc1 [Example 574] | 80.6 | 7.5
Cc1cc(C(=O)Nc2cc(Cl)cc(NS(C)(=O)=O)c2)cn1-c1ccc(N2CCC3(CC3)C2)cn1 [Example 522] | 71.8 | 40.8
Cc1sc(C(=O)Nc2cc(Cl)cc(NS(C)(=O)=O)c2)cc1-c1ncc(F)cc1OCc1cnco1 [Example 732] | 70.8 | 10.5
Cn1cc(C(=O)Nc2cc(Cl)cc(NS(C)(=O)=O)c2)cc1-c1ncc(F)cc1OC(F)F [Example 363] | 94.3% | 25.2
COc1cc(F)cnc1-n1cc(C(=O)Nc2cc(Cl)cc(NS(C)(=O)=O)c2)cc1C [Example 393] | 77 | 2.3
Cc1cccnc1-c1csc(C(=O)Nc2cc(Cl)cc(NS(C)(=O)=O)c2)c1C [Example 684] | 50.6 | 8310
COc1cc(N2CC(F)(F)C2)cnc1-c1cc(C(=O)Nc2cc(Cl)cc(NS(=O)(=O)CCO)c2)sc1C [Example 528] | 61.5 | 26.2
CS(=O)(=O)Nc1cc(F)cc(NC(=O)c2cc(-c3ncccc3OCc3ccccc3)cs2)c1 [Example 214] | 75.9% | 88
CS(=O)(=O)Nc1cc(Cl)cc(NC(=O)c2cc3cc(Cl)ccc3s2)c1 [Example 298] | 58.8% | 4210
CS(=O)(=O)Nc1cc(Cl)cc(NC(=O)c2cnn(-c3ncc(F)cc3OCc3cccc(C#N)c3)c2)c1 [Example 203] | 76.5% | 28.1
Cn1cc(C(=O)Nc2cc(Cl)cc(NS(C)(=O)=O)c2)cc1-c1ncc(N2CC(F)(F)C2)cn1 [Example 597] | 69.1 | 22
Cc1cc(C(=O)Nc2cc(Cl)cc(NS(C)(=O)=O)c2)cn1-c1ncc(N2CC3(C2)CC(F)(F)C3)cn1 [Example 413] | 64.5 | 13.3
